Measured values as given in patent publication US20070003987A1, “Screening method for substance binding to merozoite surface protein-1/42” (priority 2003, published 2007).

How the values were obtained:
[1] = target: MSP142 (Plasmodium falciparum, UniProt Q8I0U8); assay: inhibition of suramin binding (fluorescence, 384-well plate); conditions: λex 320 nm/λem 405 nm
Description: MSP142 (0.1 mg/ml), 10 μM suramin analogue and 2 μM suramin were combined in a 384-well black polypropylene low binding plate (total reaction volume 100 μL). Fluorescence was read at λex 320 nm/λem 405 nm on a BMG Polarstar fluorimeter. Readings were taken before, and 1 hour after, addition of suramin.

[2] = system: P. falciparum (FCB-1); assay: growth inhibition assay by [3H] hypoxanthine uptake; assay type: cell-based, Plasmodium falciparum; conditions: Plasmodium falciparum, Erythrocyte, read-out: IC50, inhibition of erythrocyte invasion ([3H] hypoxanthine incorporation, FIG. 2)
Description: Asexual blood stages of P. falciparum (FCB-1) were maintained at 37° C. in RPMI 1640/Albumax medium (Gibco) supplemented with 2 mM L-glutamine as previously described (Blackman, 1994 Methods Cell Biol. 45, 213-220). Cultures were gassed with 7% CO2, 5% O2 and 88% N2 and maintained by routine passage in fresh human erythrocytes. Parasites were synchronised by Percoll and sorbitol treatment (Holder & Freeman, 1982 J. Exp. Med. 156, 1528-1538); schizonts were purified by centrifugation over Percoll and then returned to culture in the presence of fresh erythrocytes. After 4 h, during which time released merozoites invaded erythrocytes, the cells were treated with 5% sorbitol for 10 min to lyse the residual schizonts, before returning the parasites to culture.
Suramin and NTS were also assayed for P. falciparum growth inhibition using [^3H] hypoxanthine uptake (generally as described by Desjardins et al, 1979 Antimicrob. Agents Chemother. 16, 710-718). Serial dilutions of the compounds in 96-well plates were incubated at 37° C. with purified mature schizonts at a final parasitaemia of ^˜0.5% and a haematrocrit of ^˜2% in triplicate cultures. […] The filters were wetted with scintillation cocktail and the bound radioactivity counted in a β-counter. […] The amount of radioactivity in each sample was expressed as a percentage of activity in the control wells containing no compound. […]

[3] = system: P. vivax MSP142; assay: binding of suramin by fluorimetry
From the text: The MSP142 protein from P. vivax was cloned into plasmid jmp28, a modified pET-28 vector that encodes an N-terminal peptide MHHHHHHIEGRWIL immediately upstream of the inserted sequence. P. vivax (Belem strain) DNA was used as a template for PCR based cloning. The sequence of the expressed protein (following the vector encoded N-terminal peptide) corresponded to residues Asp 1325 to Ser 1704, Accession number A39401.
The protein was expressed in BL21(DE3)pLysS cells by induction of a culture at an OD600 of 0.6-0.8 with IPTG at a final concentration of 1 mM. The cells were induced for 3 h at 37° C. and then harvested by centrifugation. […]
The intrinsic fluorescence of suramin was used to determine its capacity to bind to the various MSP1-derived proteins. The fluorescence was measured using a Perkin Elmer LS-3B or a Spex Fluoro Max 2 fluorimeter. Suramin was excited at a wavelength of 315 or 330 nm with 2.5 nm resolution, the emission spectra were measured at wavelengths ranging from 350-450 nm. Suramin and the MSP1 proteins were diluted in 20 mM NaH2PO4, 150 mM NaCl at pH 7.2 and analysed at 10 or 20° C. […] The Kd for the suramin-MSP1 binding was determined from three independent experiments.

Chain of MSP142 (Q8I0U8 1327-1699): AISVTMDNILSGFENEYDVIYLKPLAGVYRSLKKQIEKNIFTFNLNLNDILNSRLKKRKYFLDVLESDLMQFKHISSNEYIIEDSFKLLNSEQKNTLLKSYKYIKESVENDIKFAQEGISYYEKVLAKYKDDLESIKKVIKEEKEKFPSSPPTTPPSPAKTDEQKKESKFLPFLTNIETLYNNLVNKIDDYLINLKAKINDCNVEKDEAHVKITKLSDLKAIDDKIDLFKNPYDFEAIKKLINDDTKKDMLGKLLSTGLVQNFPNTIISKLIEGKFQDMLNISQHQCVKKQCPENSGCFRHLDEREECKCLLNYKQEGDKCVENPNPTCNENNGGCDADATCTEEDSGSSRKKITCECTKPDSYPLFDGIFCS

`Cc1ccc(C(=O)Nc2ccc(S(=O)(=O)O)c3cc(S(=O)(=O)O)cc(S(=O)(=O)O)c23)cc1NC(=O)c1cccc(NC(=O)Nc2cccc(C(=O)Nc3cc(C(=O)Nc4ccc(S(=O)(=O)O)c5cc(S(=O)(=O)O)cc(S(=O)(=O)O)c45)ccc3C)c2)c1` [suramin] was tested, and the “signal to noise ratio of fluorescence signal” value [1] was 1.8, the IC50 [2] was 60 µM and the “enhancement of intrinsic suramin fluorescence on binding” value [3] was “large binding-induced enhancements”.
